From the supplement of paper PMC11451515

Test system: P12-Ichikawa
Assay: cell viability relative to DMSO control; higher = less cytotoxic
Settings: 48 h
Method in brief: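 Viability was expressed as a per-plate percentage of DMSO wells, with cell-free wells as background. Leukemia cells (NOMO1 or SEM at 500 cells/well, P12-Ichikawa at 1000 cells/well) were adapted for at least four passages in each medium and seeded in 1536-well plates (5 μl). Library compounds in DMSO were pin-dosed over an 11-point threefold series from 47 μM to 0.79 nM, and CellTiter-Glo One luminescence was read after 48 h at 37°C.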

[1] = HPLM + 10% dialyzed FBS, 0.000781 µM
[2] = HPLM + 10% dialyzed FBS, 0.00234 µM
[3] = HPLM + 10% dialyzed FBS, 0.00702 µM
[4] = HPLM + 10% dialyzed FBS, 0.0211 µM
[5] = HPLM + 10% dialyzed FBS, 0.0632 µM
[6] = HPLM + 10% dialyzed FBS, 0.19 µM
[7] = HPLM + 10% dialyzed FBS, 0.569 µM
[8] = HPLM + 10% dialyzed FBS, 1.71 µM
[9] = HPLM + 10% dialyzed FBS, 5.12 µM
[10] = HPLM + 10% dialyzed FBS, 15.4 µM
[11] = HPLM + 10% dialyzed FBS, 46.1 µM
[12] = RPMI 5 mM glucose + 10% FBS, 0.000781 µM
[13] = RPMI 5 mM glucose + 10% FBS, 0.00234 µM
[14] = RPMI 5 mM glucose + 10% FBS, 0.00702 µM
[15] = RPMI 5 mM glucose + 10% FBS, 0.0211 µM
[16] = RPMI 5 mM glucose + 10% FBS, 0.0632 µM
[17] = RPMI 5 mM glucose + 10% FBS, 0.19 µM
[18] = RPMI 5 mM glucose + 10% FBS, 0.569 µM
[19] = RPMI 5 mM glucose + 10% FBS, 1.71 µM
[20] = RPMI 5 mM glucose + 10% FBS, 5.12 µM
[21] = RPMI 5 mM glucose + 10% FBS, 15.4 µM
[22] = RPMI 5 mM glucose + 10% FBS, 46.1 µM
[23] = RPMI 5 mM glucose + 10% dialyzed FBS, 0.000781 µM
[24] = RPMI 5 mM glucose + 10% dialyzed FBS, 0.00234 µM
[25] = RPMI 5 mM glucose + 10% dialyzed FBS, 0.00702 µM
[26] = RPMI 5 mM glucose + 10% dialyzed FBS, 0.0211 µM
[27] = RPMI 5 mM glucose + 10% dialyzed FBS, 0.0632 µM
[28] = RPMI 5 mM glucose + 10% dialyzed FBS, 0.19 µM
[29] = RPMI 5 mM glucose + 10% dialyzed FBS, 0.569 µM
[30] = RPMI 5 mM glucose + 10% dialyzed FBS, 1.71 µM
[31] = RPMI 5 mM glucose + 10% dialyzed FBS, 5.12 µM
[32] = RPMI 5 mM glucose + 10% dialyzed FBS, 15.4 µM
[33] = RPMI 5 mM glucose + 10% dialyzed FBS, 46.1 µM

Row | SMILES | cell viability [1] | cell viability [2] | cell viability [3] | cell viability [4] | cell viability [5] | cell viability [6] | cell viability [7] | cell viability [8] | cell viability [9] | cell viability [10] | cell viability [11] | cell viability [12] | cell viability [13] | cell viability [14] | cell viability [15] | cell viability [16] | cell viability [17] | cell viability [18] | cell viability [19] | cell viability [20] | cell viability [21] | cell viability [22] | cell viability [23] | cell viability [24] | cell viability [25] | cell viability [26] | cell viability [27] | cell viability [28] | cell viability [29] | cell viability [30] | cell viability [31] | cell viability [32] | cell viability [33]
1 | CC(C)NCC(O)COc1ccc(COCCOC(C)C)cc1 (centres undefined) | 115% | 117% | 105% | 103% | 113% | 118% | 112% | 96.5% | 92.6% | 107% | 99.5% | 113% | 121% | 120% | 120% | 131% | 124% | 115% | 110% | 110% | 116% | 115% | 113% | 106% | 107% | 111% | 114% | 104% | 105% | 104% | 104% | 104% | 104%
2 | COC1=NC(=NC(=C1N\C2=N\CCN2)Cl)C | 87% | 90% | 83.9% | 98.2% | 94.8% | 94.1% | 93.4% | 95% | 93.9% | 103% | 109% | 84.1% | 95.6% | 88.3% | 95.3% | 100% | 94.9% | 101% | 95.5% | 82.6% | 93.4% | 107% | 83.3% | 91.6% | 83.6% | 95.1% | 89.6% | 87.7% | 91.4% | 88.6% | 84.5% | 94% | 87.5%
3 | Cc1c(CCOc2ccc(C(=O)O)cc2)c2cc(Cl)ccc2n1C(c1ccccc1)c1ccccc1 | 123% | 110% | 112% | 117% | 113% | 113% | 107% | 105% | 101% | 83.8% | 71.8% | 109% | 112% | 111% | 111% | 108% | 108% | 112% | 101% | 106% | 103% | 86.1% | 109% | 111% | 116% | 116% | 107% | 110% | 104% | 113% | 99.3% | 103% | 88.8%
4 | CCC[C@H](NC(=O)/C(C#N)=C/c1cccc(Br)n1)c1ccccc1 | 122% | 121% | 121% | 102% | 124% | 121% | 113% | 113% | 112% | 103% | 6.91% | 130% | 122% | 122% | 111% | 120% | 116% | 128% | 122% | 111% | 103% | 5.26% | 116% | 131% | 125% | 114% | 114% | 121% | 121% | 121% | 107% | 94.4% | 5.69%
5 | COc1ccc(CC2NCCc3cc(OC)c(OC)cc32)cc1OC (centres undefined) | 88.9% | 96.3% | 98.2% | 99.8% | 95% | 98.9% | 97.4% | 95.5% | 94% | 94% | 96.7% | 85.5% | 88.7% | 89% | 87.1% | 83.2% | 86% | 90.9% | 89.2% | 82.3% | 92.2% | 84.8% | 95% | 92.9% | 86.7% | 87.9% | 82.1% | 92.4% | 85.3% | 88.2% | 87.8% | 91.3% | 82.4%
6 | CCN(CC)CC#CCOC(=O)C(O)(c1ccccc1)C1CCCCC1 (centres undefined) | 105% | 118% | 113% | 78.3% | 119% | 110% | 120% | 117% | 118% | 118% | 106% |  |  |  |  |  |  |  |  |  |  |  | 118% | 119% | 120% | 85.5% | 137% | 135% | 125% | 123% | 122% | 117% | 111%
7 | C/C=C(/C)C(=O)O[C@H]1C(C)=C2[C@H]([C@@H]1OC(=O)CCCCCCC)[C@@](C)(OC(C)=O)C[C@H](OC(=O)CCC)[C@@]1(O)[C@H]2OC(=O)[C@@]1(C)O | 103% | 114% | 111% | 109% | 104% | 71% | 38.5% | 51.5% | 67% | 69.8% | 75.2% | 120% | 129% | 107% | 125% | 96.8% | 66.4% | 22.1% | 23.8% | 46% | 48.2% | 42.4% | 109% | 121% | 123% | 112% | 95.7% | 52.6% | 13.3% | 8.27% | 16.7% | 20.3% | 22.7%
8 | C[C@](O)(COc1ccc(C#N)cc1)C(=O)Nc1ccc(C#N)c(C(F)(F)F)c1 | 85.2% | 81.8% | 93% | 94.8% | 99.2% | 93.2% | 102% | 93.9% | 89.7% | 94.6% | 95.3% | 77.6% | 84.4% | 84.3% | 94.1% | 83.8% | 92.2% | 89% | 86.7% | 83.9% | 91% | 80.5% | 80.9% | 82.6% | 78.6% | 81.6% | 83.6% | 76.1% | 82.4% | 80.7% | 77.5% | 82.1% | 68.8%
9 | CC1=CC=CC=C1N2\C(=N/C3=C(C(=CC=C3)C)C2=O)C[N]4C=NC5=C4N=CN=C5N | 115% | 124% | 122% | 85% | 120% | 118% | 108% | 106% | 79.5% | 78.2% | 82.2% | 113% | 116% | 107% | 79.6% | 109% | 98.1% | 97.6% | 81.2% | 62.8% | 60.5% | 57.9% | 107% | 123% | 116% | 81.7% | 128% | 112% | 108% | 95.6% | 70.2% | 56% | 63.9%
10 | CCCCn1c(=O)n(Cc2ccccc2F)c(=O)c2nc(Cc3ccc(NC(C)=O)cc3)[nH]c21 | 93.4% | 95.6% | 94.6% | 90.1% | 88.6% | 88.8% | 89.4% | 79.6% | 85.5% | 83.3% | 92.8% | 87.9% | 87.8% | 89.9% | 85% | 94.5% | 88.3% | 82.7% | 75.5% | 82.5% | 79.2% | 89.1% | 88.2% | 82.1% | 87.2% | 91.3% | 90.5% | 78.6% | 86.3% | 90.7% | 85.9% | 79.7% | 83%
11 | COC1=C(N2CCNC(C)C2)C(=CC3=C1N(\C=C(C(O)=O)/C3=O)C4CC4)F (centres undefined) | 101% | 105% | 112% | 101% | 91.1% | 111% | 106% | 106% | 98.1% | 101% | 87.5% | 102% | 105% | 108% | 99.6% | 88.2% | 105% | 100% | 106% | 17.8% | 96.7% | 76.9% | 94.5% | 101% | 99.2% | 104% | 95.8% | 98.1% | 99.9% | 104% | 101% | 99.8% | 78.6%
12 | C[C@H]1[C@H](NC(=O)/C(=N/OC(C)(C)C(=O)O)c2csc(N)n2)C(=O)N1[S+](=O)([O-])O | 108% | 116% | 109% | 102% | 106% | 117% | 111% | 105% | 109% | 95.3% | 103% | 99.3% | 102% | 97.1% | 102% | 101% | 106% | 101% | 110% | 98.4% | 93.4% | 97.3% | 81.3% | 101% | 101% | 102% | 110% | 102% | 101% | 93.8% | 93.3% | 99.4% | 92.3%
13 | C/C=C1\NC(=O)[C@H]2CSSCC/C=C\[C@H](CC(=O)N[C@H](C(C)C)C(=O)N2)OC(=O)[C@H](C(C)C)NC1=O | 109% | 102% | 104% | 106% | 2.7% | 2.94% | 2.82% | 2.88% | 4.38% | 1.48% | 2.87% | 97.9% | 110% | 111% | 110% | 2.34% | 2.68% | 2.61% | 2.36% | 3.14% | 1.58% | 2.72% | 98.9% | 106% | 108% | 107% | 3.38% | 3.46% | 3.34% | 2.6% | 3.15% | 3.95% | 2.58%
14 | CC[C@H](CC[C@@H](C)[C@H]1CC[C@H]2[C@@H]3C\C=C/4C[C@@H](O)CC[C@]4(C)[C@H]3CC[C@]12C)C(C)C | 117% | 111% | 123% | 119% | 112% | 111% | 111% | 110% | 99.4% | 103% | 75.9% | 112% | 119% | 120% | 121% | 120% | 118% | 111% | 107% | 106% | 108% | 92.2% | 110% | 118% | 110% | 107% | 108% | 110% | 109% | 103% | 103% | 105% | 93.1%
15 | Cn1c(=O)c2c(ncn2C)n(C)c1=O.O=C(O)CC(O)(CC(=O)O)C(=O)O | 108% | 106% | 112% | 111% | 111% | 113% | 105% | 105% | 96.8% | 101% | 93.1% | 116% | 119% | 126% | 126% | 121% | 117% | 115% | 116% | 120% | 110% | 107% | 106% | 114% | 110% | 111% | 110% | 109% | 105% | 114% | 113% | 106% | 96.3%
